Experimental data reported in patent publication EP4696691A1, “TRICYCLIC COMPOUND, AND PREPARATION METHOD THEREFOR AND USE THEREOF” (Shanghai Huilun Pharmaceutical Co., Ltd., priority 2023, dated 2024).
Read-outs that look alike come from different tables or passages of the source.

Tests used:
[1] = Pharmacokinetic behavior in mice (plasma concentration by LC-MS/MS); format: in vivo; settings: mouse, plasma, male ICR mice; for Cmax: read-out: Cmax
Method: (§1) Three healthy ICR mice (SPF grade, from Beijing Vital River Laboratory Animal Technology Co., Ltd.), male, weighing 18-25 g, were intravenously injected with a compound (1 mg/kg) at a volume of 5 mL/kg. The compound was prepared using 5% DMSO+10% Solutol+85% Saline (w/v), and the animals were not fasted before the experiment.
as §1, with “were intragastrically administered” for “were intravenously injected with”, “compound (5” for “compound (1”, “of 10” for “of 5”
Blood samples (about 0.05 mL each) were collected from the cheeks at 5 min, 15 min, 30 min, 1 h, 2 h, 4 h, 6 h, 8 h, and 24 h after intravenous administration, and at 5 min, 15 min, 30 min, 1 h, 2 h, 4 h, 6 h, 8 h, and 24 h after intragastrical administration, and anticoagulated with heparin sodium. Following collection, the blood samples were placed on ice and the plasma was centrifuged within 1 h (centrifugation conditions: 6,000 g, 3 min, 2 °C to 8°C). The concentration of the compounds in the plasma was determined by liquid chromatography tandem mass spectrometry. The plasma samples were stored in a -80°C freezer before analysis. With plasma concentration data at different time points, pharmacokinetic parameters were calculated by Phoenix WinNonlin8.2.0, and the results are shown in Table 4: Table 4

[2] = system: LPS induced IL-6 release in human PBMC cells; experiment: Inhibition of LPS induced IL-6 release in human PBMC cells (IL-6 HTRF assay); format: cell-based; settings: 2 h compound pre-incubation, LPS 5 ng/mL for 4 h, IL-6 in supernatant
Method: I. Recovery and seeding of PBMC, and treatment of compounds (human PBMC cells were purchased from Oricell, item number: Fpb003F)
• 1. Preparation of compounds Sample dilutions of a series of concentrations were obtained by dilution in DMSO using Bravo, and then 80 nL was transferred into a cell plate using ECHO. The final concentration of DMSO in the cell culture medium is 0.1%. • 2. Frozen cells were quickly thawed in a 37°C water bath and stirred continuously. • 3. 25 mL of fresh preheated culture medium was added into a 50 mL centrifuge tube, and then the cells were added dropwise. Then the cells were centrifuged at 2,000 rpm for 10 min. • 4. […] The total number of cells required was calculated based on cell concentration to perform the assay. 7×10e4 cells were added per well (70 µL). • 6. The cell plate was placed and incubated in a 5% CO2 incubator at 37°C for 2 h.
• 1. LPS: A stock solution (1 mg/mL) was diluted in dH2O, aliquoted, and stored at -80°C. • 2. 8-fold LPS was added per well (10 µl/well) (with a final concentration of 5 ng/mL). The cells were incubated in a 5% CO2 incubator at 37°C for 4 h. • 3. 70 µl of supernatant was collected per well using Bravo, and then IL-6 HTRF assay was performed. The supernatant may be stored at -80°C.
1. Preparation of standards and sample dilutions. 2. 16 µL of each sample was taken using Bravo and added to wells. Then 16 µL of each standard was taken and added to corresponding wells. 3.4 µL of a premixed IL6 antibody working solution was added to each of all wells. 4. The cell plate was sealed and incubated at room temperature for 2 h. 5.

[3] = molecular target: T1, IRAK4-HiBiT fusion protein (Homo sapiens, UniProt Q9NWZ3); experiment: Detection of HiBiT-IRAK4 proteolysis levels in K562 IRAK4-HiBiT cells (Nano-Glo HiBiT Lytic assay); format: cell-based; settings: 6 h incubation
T1 construct: K562 from ATCC
T1 sequence (Q9NWZ3 1-460): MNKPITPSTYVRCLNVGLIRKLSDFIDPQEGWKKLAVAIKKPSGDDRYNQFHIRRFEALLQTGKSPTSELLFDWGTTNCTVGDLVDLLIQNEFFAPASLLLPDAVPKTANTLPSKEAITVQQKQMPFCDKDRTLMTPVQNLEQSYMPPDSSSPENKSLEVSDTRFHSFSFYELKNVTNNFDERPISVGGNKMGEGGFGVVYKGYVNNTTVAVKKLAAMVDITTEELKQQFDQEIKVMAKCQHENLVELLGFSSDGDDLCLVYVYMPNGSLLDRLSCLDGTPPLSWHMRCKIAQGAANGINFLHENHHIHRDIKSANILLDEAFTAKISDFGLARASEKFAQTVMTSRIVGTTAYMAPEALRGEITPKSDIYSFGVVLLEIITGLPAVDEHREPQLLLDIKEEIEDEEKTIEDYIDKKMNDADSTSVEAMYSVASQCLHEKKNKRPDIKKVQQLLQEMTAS
Method: Test Example 1 Detection of HiBiT-IRAK4 proteolysis levels in K562 IRAK4-HiBiT cells co-incubated with compounds of the present application • Reagents, devices, and consumables in experiments: • Nano-Glo Lytic Detection Assay, purchased from Promega; • EnVision, purchased from PerkinElmer; • Name of cell line: K562 IRAK4-HiBiT stable transformation cell strain (capable of stably expressing IRAK4-HiBiT fusion protein), constructed by Shanghai Bioduro Biologics Co., Ltd., where a K562 cell strain was purchased from ATCC. The culture medium is IMDM+10% FBS+1% P/S (volume percentage, where FBS is fetal bovine serum and P/S is Penicillin-Streptomycin, a 1:1 mixture of penicillin and streptomycin antibiotic solution (10,000 units/mL)).
Cell culture: K562 IRAK4-HiBiT cells were incubated at 37°C, and passaged every 2-3 d, with a seeding density of 200,000 cells/mL.
IRAK4-HiBiT proteolysis experiment: • Step 1: Cell seeding and treatment of compound • 1. A 10 mM compound mother liquor was prepared using DMSO, and a compound solution with a working concentration of 1,000 times (the highest working concentration is 10 µM, diluted 3.162 times, with a total of 10 concentration gradients) was prepared using Bravo automatic liquid processing platform. • 2. 40 nL of a compound working solution was transferred to a 384 well plate, and an equal volume of DMSO was added to positive control wells. • 3. 20 µL of a culture solution was added per well and shaken for 10 min. • 4.20 µL of a K562 IRAK4-HiBiT cell suspension was added per well (6,000 cells/well), and an equal volume of culture medium was added to negative control wells. • 5. The well plate was rotated at 1,000 rpm for 1 min. • 6. The cells were incubated in a 5% CO2 incubator at 37°C for 2 h or 6 h. • Step 2: HiBiT Lytic experiment • 1. The well plate was placed at room temperature to equilibrate for 30 min. • 2. 20 µL of Nano-Glo HiBiT Lytic reagent (trade name: Nano-Glo® HiBiT Lytic Detection Reagent) and the well plate was kept in the dark. • 3. The well plate was placed on an orbital shaker at 300 rpm for 5 min. • 4. The cells were incubated at room temperature for 10 min. • 5. The luminous value was read by Envision. • 6. Data was calculated and processed. Degradation degree%=(negative control - experimental well)/(negative control - positive control) * 100%. Using XL-fit software, a degradation curve was obtained by fitting using a 4 Parameter Logistic Model, and the values of Relative DC50 (nM) and Absolute DC50 (nM) were obtained.

[4] = po, Intragastric administration (5 mg/kg)
[5] = Intravenous injection (1 mg/kg)

SMILES: COc1cc2nn([C@H]3CC[C@H](CCN4CCC5(CC4)OCc4cc(C6CCC(=O)NC6=O)ccc45)CC3)cc2cc1C(=O)Nc1cccc(C(F)(F)F)n1 (stereo partly drawn) [Compound 96]
- AUC(0-t) [1, 4]: 3640 ng·h/mL
- bioavailability [1, 4]: 35.4%
- half-life [1, 4]: 14.7 h
- Cmax [1, 4]: 239 ng/mL
- AUC(0-t) [1, 5]: 2060 ng·h/mL
- clearance [1, 5]: 4.59 mL/min/kg
- Cmax [1, 5]: 243 ng/mL
- Vd ([1]; Intravenous injection (1 mg/kg), read-out: Vss): 7.97 L/kg
- IC50 [2]: 0.23 nM
- Dmax [3]: 97%
- DC50 ([3]; read-out: Absolute DC50): 0.48 nM
- DC50 ([3]; read-out: Relative DC50): 0.44 nM
